How the values were obtained:
[1] = test system: Enterobacter cloacae spp. cloacae (ATCC 13047); assay: microbe, parasite or virus in culture; details: Muller–Hinton broth, 18 h
Description: (§1) The MIC of PN159 on the 6 sensitive and resistant ESKAPE pathogenic strains was determined in cation-adjusted Muller–Hinton broth. […] Minimum inhibitory concentrations (MICs) were determined by using a standard serial broth dilution technique. Briefly, 11-step serial dilutions were prepared in 96-well microtiter plates with three biological replicates per strain. Pathogens were inoculated into each well at a density of 5×10^5 bacteria/mL, and the plates were incubated at 37 °C. Plates were shaken at 300 rpm during incubation for 18 h. Cell growth was monitored by measuring the optical density (OD600 value, Synergy 2 microplate reader BioTek Instruments Inc, Winooski, VT, USA). […] As reference compounds we tested the antimicrobial activity of three bactericidal drugs with different modes of action.

[2] = test system: Pseudomonas aeruginosa (ATCC 27853); assay: microbe, parasite or virus in culture; details: Muller–Hinton broth, 18 h
Description: as §1

[3] = test system: respiratory epithelial tissue (EpiAirway model); design: method as in PMID 16625659; details: 1-h treatment; cited from earlier work
Caco-2 epithelial cells = assay: MTT assay, Caco-2 cell viability; assay type: cell-based, human; details: 1-h treatment
Description: The human Caco-2 intestinal epithelial cell line was purchased from ATCC (cat.no. HTB-37). Caco-2 cells were grown in DMEM/HAM’s F-12 culture medium with stable glutamine (Life Technologies, Gibco, Carlsbad, CA, USA) supplemented with 10% fetal bovine serum (Life Technologies, Gibco, Carlsbad, CA, USA and 50 μg/mL gentamycin in a humidified incubator with 5% CO2 at 37 °C. All plastic surfaces were coated with 0.05% rat tail collagen in sterile distilled water before cell seeding.
The PN159 peptide stock solution (5 mM) was prepared freshly in sterile DMSO. Treatment solutions were further diluted in Ringer-Hepes (150 mM NaCl, 6 mM NaHCO3, 5.2 mM KCl, 2.2 mM CaCl2, 0.2 mM MgCl2, 2.8 mM D-glucose, 5 mM Hepes; pH 7.4) or cell culture medium. Final concentrations of the peptide in treatment solutions were as follows: 1, 3, 10, 30 and 100 µM for cell viability assays; 1, 3, 10 and 30 µM for the barrier integrity assays and 10 µM for the recovery measurements.
For the cell viability assays Caco-2 epithelial cells were seeded to 96-well plates at the density of 6 × 10^3 cells/well (Orange Scientific) and cultured for 3-5 days. Confluent cultures were treated with PN159 peptide (1, 3, 10, 30 and 100 μM) in phenol red free DMEM (Life Technologies, Gibco, Carlsbad, CA, USA) for 1-h. This viability assay was performed at three different time points: (i) immediately after the 1-h treatment, (ii) at one-day recovery, (iii) at one-week recovery. To determine 100% toxicity, cells were incubated with 1 mg/mL Triton X-100 detergent. After treatment the medium was changed and 0.5 mg/mL MTT (3-(4,5-dimethyltiazol-2-yl)-2,5-diphenyltetrazolium bromide) solution was added to the cells for 3 h. During the incubation cells were kept in a CO2 incubator. The metabolic activity of cells is reflected by the conversion of the yellow MTT dye to purple formazan. Formazan crystals were dissolved in DMSO and the amount of converted dye was determined by measuring absorbance at 595 nm wavelength with a microplate reader (Fluostar Optima, BMG Labtechnologies, Ortenberg, Germany). Cell viability and/or metabolic activity was calculated as percentage of dye conversion by non-treated cells.

Caco-2 cell layers = assay: Penetration of marker and drug molecules across Caco-2 cell layers (Papp A-B); details: PN159 10 and 30 μM, 1-h treatment
Description: In the permeability experiments inserts with Caco-2 cell layers grown for 3 weeks were transferred to 12-well plates containing 1.5 mL Ringer–Hepes buffer in the lower (basal or acceptor) compartments. In the upper or apical compartments culture medium was replaced by 0.5 mL buffer containing peptide solutions: PN159 peptide at 1, 3, 10 and 30 μM concentrations and CPPs at 100 μM concentration. […] The incubation with permeability markers in the presence of PN159 peptide lasted for 30 min. In case of CPPs the incubation time with fluorescein was 1-h. Samples were collected from both compartments and the concentrations of the marker molecules were determined by a fluorescence multi-well plate reader (Fluostar Optima; excitation wavelength: 485 nm, emission wavelength: 535 nm in the case of fluorescein and excitation wavelength: 584 nm, emission wavelength: 680 nm in the case of Evans-blue labeled albumin). Fluorescein isothiocyanate (FITC)-labelled dextran marker molecules (Table 1) were used at 1 mM concentrations, and fluorescence intensities of collected samples were measured using a Fluorolog FL3-22 (Horiba Jobin Yvon, Paris, France) spectrofluorometer using 492 nm excitation wavelength, 515 nm emission wavelength, and 0.5 s integration time. Drugs were used at 10 μM concentrations and samples were measured by HPLC as described below. The apparent permeability coefficients (Papp) were calculated as described previously. Briefly, cleared volume was calculated from the concentration difference of the tracer in the basal compartments (Δ[C]B) after 30 min and apical compartments at 0 h ([C]A), the volume of the basal compartment (VB; 1.5 mL) and the surface area available for permeability (A; 1.1 cm^2).
Analytical measurements were performed on a Merck-Hitachi LaChrom HPLC system equipped with an ultraviolet (UV) and fluorescence detector (Merck, Darmstadt, Germany). All reagents used were of analytical reagent grade. […] In both cases 10μL sample was injected into the chromatographic system.
The chromatographic column was maintained at 40 °C and the 5 μL sample was injected onto the column.
The column temperature was maintained at 40 °C and a 20 μL sample was injected onto the chromatographic system. […] UV detection was set at 228 nm.

claudin-1 = test system: claudin-1; design: method as in PMID 26869428; details: affinity measurements; cited from earlier work
claudin-5 = test system: claudin-5; design: method as in PMID 26869428; details: affinity measurements; cited from earlier work

SMILES: CC(C)C[C@H](NC(=O)[C@H](C)NC(=O)[C@H](CCCCN)NC(=O)[C@H](CC(C)C)NC(=O)[C@H](C)NC(=O)[C@H](CC(C)C)NC(=O)[C@H](CCCCN)NC(=O)[C@H](CC(C)C)NC(=O)[C@H](C)NC(=O)[C@H](CC(C)C)NC(=O)[C@@H](N)CCCCN)C(=O)N[C@@H](CCCCN)C(=O)N[C@@H](C)C(=O)N[C@@H](C)C(=O)N[C@@H](CC(C)C)C(=O)N[C@@H](CCCCN)C(=O)N[C@@H](CC(C)C)C(=O)N[C@@H](C)C(N)=O [PN159]
- MIC [1]: 31.0 µM
- MIC [2]: 46.4 µM
- Safe concentration (MTT) [3]: up to 100 μM
- Non-toxic concentration (MTT and impedance) (Caco-2 epithelial cells; Caco-2): ≤ 10 µM
- Toxicity (MTT and impedance) (Caco-2 epithelial cells; PN159 30 μM): reversible
- Toxicity (MTT and impedance) (Caco-2 epithelial cells; PN159 100 μM): toxic
- Reversibility of cytotoxic effect (MTT) (Caco-2 epithelial cells; PN159 100 μM, 1-day or 1-week recovery): not reversible after one day or even one week
- Cell viability (MTT) (Caco-2 epithelial cells; PN159 1–10 μM, Caco-2): did not decrease cell viability
- Cell viability (MTT) (Caco-2 epithelial cells; PN159 30 and 100 μM, Caco-2): cell damage
- Permeability enhancement for fluorescein and albumin (Caco-2 cell layers): most effective permeability enhancer activity
- Binding (claudin-1): in the micromolar range
- Binding (claudin-5): in the micromolar range
